For this experiment, the target named is T1, human Edg-1 receptor (Homo sapiens, UniProt P21453).
T1 construct: expressed in transfected cells; host or cells: Flp-In-CHO cells, stably transfected; membrane preparation
Put plainly: GTP-γ-S assay using human Edg-1 receptors (scintillation proximity assay, CHO Flp-In cell membrane preparation). Type of experiment: biochemical. The conditions noted are these: test compound at 10 μM; 10 μM S1P regarded as 100% activation; background-corrected; triplicate; read-out: % Activation (Edg-1 receptor activation in percent of the activation by 10 μM S1P). An excerpt: A) GTP-γ-S assay using human Edg-1 receptors
In order to determine the Edg-1 receptor activation by the compounds of the invention, a GTP-γ-S (guanosine 5′-[thio]triphosphate) assay for G-protein coupled receptor binding based on the scintillation proximity assay principle was used, employing a cell membrane preparation from a CHO Flp-In cell line which constitutively overexpresses the human Edg-1 receptor.
(a) Cell line generation The Flp-In™ expression system (Invitrogen, cat. no. K6010-01) allows the generation of stable mammalian cell lines into which the gene of interest has been integrated through homologous recombination at a specific genomic location called Flp Recombination Target (FRT) site by means of a Flp recombinase encoded by the pOG44 expression plasmid. The integration of the pcDNA5/FRT expression construct into the Flp-In host cell line genome results in the transcription of the gene of interest. The stably transfected cells become hygromycin-resistant.
One day prior to transfection, 200 000 Flp-In-CHO cells were seeded in Ham F-12 medium (Invitrogen, cat. no. 31765) supplemented with 10% fetal calf serum (FCS; Perbio Science, cat. no. SH30068.03) in a 6-well plate and incubated at 37° C./5% CO2 overnight. Using the FuGENE® 6 transfection reagent (Roche, cat. no. 11988387001), cells were cotransfected with the Flp recombinase expression plasmid pOG44 and a modified plasmid additionally containing the edg-1 gene (accession no. NM_001400) termed as pcDNA5-FRT-TO_nFLAG_DEST-EDG-1 with a 9:1 ratio. To obtain the modified pcDNA5-FRT-TO_nFLAG_DEST plasmid, the Invitrogen plasmid pcDNA5/FRT/TO (Invitrogen, cat. no. V6520-20) was adapted to the Gateway® (Invitrogen) cloning system by inserting a Gateway cassette containing attR recombination sites flanking a ccdB gene and a chloramphenicol-resistance gene (Gateway conversion system, Invitrogen, cat. no. 11828-029). In addition a FLAG tag epitope was added before the 5′ att recombination site to allow recombinant expression of N-terminally FLAG-tagged proteins.
For the transfection of one well, 1.08 μg of pOG44 and 0.12 μg of pcDNA5-FRT-TO_nFLAG_DEST-EDG-1 were mixed to 100 μl of serum-free Ham F-12 medium containing 6 μl of FuGENE® 6 transfection reagent. After 20 min of incubation, the transfection reagent/DNA complex was distributed dropwise on the cells. The cells were incubated for 24 h at 37° C. Then the cells from 3 wells were transferred to a T75 flask (Greiner Cellstar®, cat. no. 658175) containing Ham F-12 medium supplemented with 10% of FCS but without antibiotic and were incubated another 24 h. 48 h after transfection, the medium was replaced by selection medium (Ham F-12 supplemented with 10% of FCS and 300 μg/ml of hygromycin B (Invitrogen, cat. no. 10687-010)). The medium was exchanged every 2 to 3 days until a resistant population of cells had grown. […] After 2 weeks of selection, the cells were transferred into T175 flasks (Greiner Cellstar®, cat. no. 660175) and cultivated for batch production. Cells were harvested from the culture flasks by short treatment (2 to 5 min) with Accutase (PAA, cat. no. L11-007), resuspended in selection medium (see above) and centrifuged at 200×g for 5 min. Cells were resuspended in a mixture of 90% of FCS and 10% of dimethylsulfoxide and stored frozen in liquid nitrogen.
A membrane preparation was obtained by standard methods from the afore-described CHO Flp-ln cell line constitutively overexpressing the human Edg-1 receptor. Briefly, the cryopreserved cells were taken in culture and grown until confluency in T175 cell culture flasks (Becton Dickinson, cat. no. 35 5001). […]
Background: In a scintillation proximity assay essentially only radioactivity close to the scintillant gives light.

T1 sequence (P21453 whole entry): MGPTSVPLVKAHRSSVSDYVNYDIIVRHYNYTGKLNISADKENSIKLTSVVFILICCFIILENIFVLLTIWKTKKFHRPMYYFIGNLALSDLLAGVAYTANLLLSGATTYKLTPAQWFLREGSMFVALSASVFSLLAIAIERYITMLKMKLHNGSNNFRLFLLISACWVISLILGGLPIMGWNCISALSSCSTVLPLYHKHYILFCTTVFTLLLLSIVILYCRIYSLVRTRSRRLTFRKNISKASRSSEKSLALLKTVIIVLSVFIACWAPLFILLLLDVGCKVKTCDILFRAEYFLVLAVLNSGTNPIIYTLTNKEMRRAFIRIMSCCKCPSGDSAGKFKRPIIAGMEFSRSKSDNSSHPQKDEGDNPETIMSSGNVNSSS

As to `COc1ccc(-c2nc3cnc(Oc4ccccc4F)nc3o2)cc1C` [Example 5, 5-(2-fluoro-phenoxy)-2-(4-methoxy-3-methyl-phenyl)-oxazolo[5,4-d]pyrimidine], the activation at 10 µM was found to be 42%. Under `COc1c(C)cc(-c2nc3cnc(Oc4ccccc4F)nc3o2)cc1C` [Example 1, 5-(2-Fluoro-phenoxy)-2-(4-methoxy-3,5-dimethyl-phenyl)-oxazolo[5,4-d]pyrimidine] stands 102%. Under `Cc1cc(-c2nc3cnc(Oc4cccnc4)nc3o2)cc(C)c1O` [Example 11, 2,6-dimethyl-4-[5-(pyridin-3-yloxy)-oxazolo[5,4-d]pyrimidin-2-yl]-phenol] stands 103%.

For `Cc1cc(-c2nc3cnc(Oc4cccc(F)c4)nc3o2)cc(C(C)C)c1O` [Example 12, 4-[5-(3-fluorophenoxy)-oxazolo[5,4-d]pyrimidin-2-yl]-2-isopropyl-6-methyl-phenol], the activation at 10 µM was found to be 112%. As to `Oc1ccc(-c2nc3cnc(Oc4ccccc4F)nc3o2)cc1` [Example 4, 4-[5-(2-fluoro-phenoxy)-oxazolo[5,4-d]pyrimidin-2-yl]-phenol], the activation at 10 µM was determined as 83%. As to `Cc1cc(-c2nc3cnc(Oc4ccccc4F)nc3o2)ccc1O` [Example 7, 4-[5-(2-fluoro-phenoxy)-oxazolo[5,4-d]pyrimidin-2-yl]-2-methyl-phenol], the activation at 10 µM is 115%. With `COc1ccc(-c2nc3cnc(Oc4ccccc4F)nc3o2)cc1C(F)(F)F` [Example 6, 5-(2-fluoro-phenoxy)-2-(4-methoxy-3-trifluoromethyl-phenyl)-oxazolo[5,4-d]pyrimidine] the figure was 87%. Under `COc1c(C)cc(-c2nc3cnc(Oc4ccccc4)nc3o2)cc1C` [Example 8, 2-(4-methoxy-3,5-dimethyl-phenyl)-5-phenoxy-oxazolo[5,4-d]pyrimidine] stands 94%; under `COc1c(C)cc(-c2nc3cnc(Oc4cccnc4)nc3o2)cc1C` [Example 9, 2-(4-methoxy-3,5-dimethyl-phenyl)-5-(pyridin-3-yloxy)-oxazolo[5,4-d]pyrimidine], 87%.

As to `Cc1cc(-c2nc3cnc(Oc4ccccc4F)nc3o2)ccc1S(C)(=O)=O` [Example 13, 5-(2-fluorophenoxy)-2-(4-methanesulfonyl-3-methylphenyl)-oxazolo[5,4-d]pyrimidine], the activation at 10 µM stood at 120%. `Oc1ccc(-c2nc3cnc(Oc4ccccc4F)nc3o2)cc1C(F)(F)F` [Example 10, 4-[5-(2-fluoro-phenoxy)-oxazolo[5,4-d]pyrimidin-2-yl]-2-trifluoromethyl-phenol]: the activation at 10 µM was 107%. Turning to `COc1cccc(-c2nc3cnc(Oc4ccccc4F)nc3o2)c1` [Example 3, 5-(2-fluoro-phenoxy)-2-(3-methoxy-phenyl)-oxazolo[5,4-d]pyrimidine], the activation at 10 µM was 95%. Under `Cc1cc(-c2nc3cnc(Oc4ccccc4F)nc3o2)cc(C)c1O` [Example 2, 4-[5-(2-Fluoro-phenoxy)-oxazolo[5,4-d]pyrimidin-2-yl]-2,6-dimethyl-phenol] stands 115%. Turning to `Cc1cc(S(C)(=O)=O)ccc1-c1nc2cnc(Oc3ccccc3F)nc2o1` [Example 14, 5-(2-fluorophenoxy)-2-(4-methanesulfonyl-2-methylphenyl)-oxazolo[5,4-d]pyrimidine], the activation at 10 µM stood at 69%.

For the origin of these results see patent US9040544B2, “2,5-substituted oxazolopyrimidine derivatives” (Sanofi, priority 2010, dated 2015).
